Results as given in patent publication US20060276390A1, “Combined treatments comprising synthetic peptide copolymers for preventing graft rejection” (YEDA RESEARCH AND DEVELOPMENT CO. LTD., priority 2003, published 2006).
“And” between values parts separate entries of the source, which are not always exact repeats. Equal values may be shown once. “Also recorded” adds a separate entry of the source. Read-outs that look alike come from different tables or passages of the source.

Columns and labels:
[1] = test system: BALB/c recipient mice transplanted with skin grafts from C57BL donors; conditions: for prolongation of skin graft survival / mean survival time (MST) of skin graft: FIG. 3 experiment
Description: BALB/c mice were transplanted with skin grafts from C57BL/6 donors. […] Grafts were considered rejected when no viable donor epidermis remained. At least 7 mice were tested in each group.
Skin transplantation is an established model to measure immune rejection. In this model recipient and donor mice were anesthetized, shaved and cleaned. Circular pieces of skin (1.0 to 1.3 cm in diameter) were cut from dorsal side of the donor mice and dorsally transplanted to recipient animals by the use of histoacryl (Braun, Melsungen, Germany). The grafts were covered with Nobecutane antiseptic spray bandage (Astra, Wedel, Germany). Mice were kept in separate cages and inspected daily. Grafts were considered rejected when no viable donor epidermis remained.
Three murine strain combinations: B10.D2→BALB/c in the H-2^d haplotype, C57BL→C3HSW in the H-2^b haplotype, and B10PL→PL/J in the H-2^u haplotype, were tested across minor histocompatibility barriers, and across major histocompatibility barriers transplantation was tested in C57BL→BALB/c in the H-2^b→H-2^d haplotype. These strain combinations were tested with Copolymer 1 both using skin and thyroid transplantations.
BALB/c recipient mice were transplanted with skin grafts originated in C57BL donors in day 0. GA (100 mg/kg, s.c.) was injected daily starting 2 weeks before transplantation. […] Rejection was considered positive when no viable donor epidermis remained.

B10PL→PL/J skin graft = assay: Skin graft rejection, B10PL→PL/J (H-2u); format: in vivo, mouse; conditions: Cop 1
Description: (§1) Mice were kept in separate cages and inspected daily.
(§2) The transplanted mice or rats were treated daily with Copolymer 1 at doses of 0.6-2.5 mg/day for mice and 25 mg/day for rats in PBS solution, starting 7 or 14 days before transplantation. In some cases, the first Cop 1 treatment was injected sc in ICFA as a depot dose.

[2] = test system: BALB/c recipient mice transplanted with skin grafts from B10.D2 donors; assay: Skin graft rejection, B10.D2→BALB/c model; format: in vivo, mouse
Description: as §1, §2
To test the effect of Copolymer 1 treatment on skin graft rejection in the B10.D2→BALB/c model, BALB/c recipient mice were transplanted with skin grafts from B10.D2 donors and were treated daily with: PBS ip from day −7, Copolymer 1 (ip+sc) from day −7. Grafts were inspected daily.
Grafts were inspected daily. […] Thyroid glands from B10.D2 donors were transplanted in the kidney's capsules of BALB/c mice.

[3] = test system: Lewis rats transplanted with an accessory heart from allogeneic disparate BN donor rats; format: in vivo
Text: Lewis rats were transplanted with an accessory heart from the allogeneic disparate BN donor rats. […] Combination of pretreatment with GA and the respective doses of the immunosuppressants (open bars); Treatment with GA administered from the day of transplantation without pretreatment (striped bar). Cardiac allograft survival was inspected by daily monitoring palpation of the grafts. Grafts were considered rejected when no heart palpitations could be observed.

[4] = test system: thyroid glands from B10.D2 donors transplanted in the kidney's capsules of BALB/c mice; assay: Function of transplanted thyroids (I125 absorbance), B10.D2→BALB/c model; format: in vivo, mouse; conditions: for MFI (mean function index): fold over PBS
Description: (§3) In this transplantation model for HVG, thyroid glands from donor mice were transplanted in the kidney's capsules of recipient mice. One week later the transplanted mice were injected with ^125I, and the radioactivity of each kidney (the recipient or the untransplanted kidney) was measured after 20 hours. Δcpm was calculated by subtracting the ^125I absorbance of the untransplanted kidneys from the ^125I absorbance of the recipient kidneys in the same treatment. The mean function index (MFI) for treatment was calculated by dividing the mean Δcpm for the tested treatment by the mean Δcpm for the PBS treatment. P values were obtained by the ANOVA test. This assay indicates objectively and quantitatively not only the graft survival, but also the function (iodine absorbance) of the transplanted thyroid tissue (Isakov et al., 1979).
as §2
To test the effect of Copolymer 1 treatment on the function of transplanted thyroids in the B10.D2→BALB/c model, thyroid glands from donors B10.D2 were transplanted in the kidney's capsules of BALB/c mice. After one week the transplanted mice were injected with I^125, and the radioactivity of each kidney was measured 20 hours later. A cpm was calculated by subtracting the I^125 absorbance of the untransplanted kidneys from the I^125 absorbance of the recipient kidneys in the same treatment. The mean function index (MFI) for each treatment was calculated by dividing the mean I^125 absorbance of (transplanted kidney—untransplanted kidney) in the tested treatment by the mean I^125 absorbance of (transplanted kidney—untransplanted kidney) in the PBS treatment, as follows: [formula]

C57BL→C3HSW skin graft = assay: Skin graft rejection, C57BL→C3HSW (H-2b); format: in vivo, mouse; conditions: Cop 1
Description: as §1, §2

C57BL→C3H thyroid graft = assay: Thyroid rejection (I125 absorbance), C57BL→C3H (H-2b); format: in vivo, mouse; conditions: Cop 1
Description: as §3, §2

B10PL→PL/J thyroid graft = assay: Thyroid rejection (I125 absorbance), B10PL→PL/J; format: in vivo, mouse; conditions: Cop 1
Description: as §3, §2

[5] = test system: thyroid glands from C57BL mice transplanted in the kidney capsule of BALB/c mice; assay: Function of transplanted thyroids (I125 absorbance), C57BL→BALB/c model; format: in vivo, mouse
Description: as §3
BALB/c recipient mice were transplanted in the kidney's capsules with thyroid glands from donor mice in day 0. Grafts were inspected daily. The function (iodine absorbance) of the transplanted thyroid tissue was examined 10 days after transplantation by measuring the iodine absorbance in the kidney.
Thyroid glands from C57BL mice were transplanted in the kidney capsule of BALB/c mice. Nine days after transplantation, mice were injected with 1 μcI^125, and the radioactivity of each kidney was measured 20 hr. later. MFI—denotes the mean function index, calculated as
MFI=mean Δcpm for the tested treatment/mean Δcpm for the PBS tested treatment

[6] = Cop 1 600 μg/day ip from day −7
[7] = Cop 1, another experiment (N=5)
[8] = Cop 1 2.5 mg/mouse, Table 7 Part 1
[9] = Cop 1 2.5 mg/mouse, Table 7 Part 2
[10] = Cop 1, C57BL → BALB (H-2b → H-2d), Table 5
[11] = FK 506 300 μg/day ip, 7 times from day −2

Q: What does the source list for glatiramer acetate [Cop 1]?
A: MST (Mean Survival Time) of skin graft ([1]; Cop 1, listed as printed C57BL→C3HSW (H-2b → H-2d)): 18.5 ± 3.3; prolongation of skin graft survival ([1]; GA 100 mg/kg): 27%; mean survival time (MST) of skin graft ([1]; GA 100 mg/kg, untreated control 8.5 days): 10.8 days; Prolongation ([1]; GA 100 mg/kg alone, Table 6A): 10%; MST (Mean Graft Survival Time) ([1]; GA 100 mg/kg alone, Table 6B): 11.5 days; Prolongation ([1]; GA 100 mg/kg alone, Table 6B): 11%; appearance of mice ([1]; GA 100 mg/kg injected daily): looked completely healthy; MST (Mean Graft Survival Time) ([1]; GA 100 mg/kg s.c. daily from 2 weeks before transplantation, alone, Table 6A): 12.3 days; MST (Mean Survival Time) of skin graft (B10PL→PL/J skin graft): 17.6 ± 5.1; MST (Mean Survival Time) of skin graft ([2]; Cop 1 300 μg/day ip+sc daily from day −7): 20.4 ± 4.5 days; MST (Mean Survival Time) of skin graft ([2]; Cop 1 300 μg/day ip+sc daily from day −7, listed as Copolymer 1): 20.4 days; MST (Mean Survival Time) of skin graft ([2]; Cop 1 600 μg/day ip+sc daily from day −7): 20.6 days and 20.6 ± 3.3 days; MST (Mean Survival Time) of skin graft ([2]; Cop 1 600 μg/day ip+sc daily from day −7, listed as Copolymer 1): 20.6 days; Prolongation ([3]; GA 100 mg/kg alone, vs untreated control): 0.4 days; MST (Mean Graft Survival Time) of heart graft ([3]; GA 100 mg/kg daily from 2 weeks before transplantation, alone): 7.6 ± 0.5 days; effect on heart graft survival ([3]; GA treatment by itself): did not prolong graft survival; Mean I^125 Absorption, Transplanted Kidney [4, 6]: 2901 cpm; Δcpm (transplanted minus untransplanted kidney) [4, 6]: 2451 cpm; MFI (mean function index) ([4]; Cop 1 600 ug/day, another experiment (N=5)): 5.2; MFI (mean function index) ([4]; Cop 1 600 μg/day): 3.2; Mean I^125 Absorption, Transplanted Kidney [4, 7]: 1035 cpm; Δcpm [4, 7]: 898 cpm; MST (Mean Survival Time) of skin graft (C57BL→C3HSW skin graft): 17.7 ± 2.1; MFI (mean function index) (C57BL→C3H thyroid graft): 2.3; Mean I^125 Absorption, Transplanted Kidney (C57BL→C3H thyroid graft): 1643 cpm; Δcpm (C57BL→C3H thyroid graft): 1362 cpm; MFI (mean function index) (B10PL→PL/J thyroid graft): 2.5; Mean I^125 Absorption, Transplanted Kidney (B10PL→PL/J thyroid graft): 2009 cpm; Δcpm (B10PL→PL/J thyroid graft): 1677 cpm; MFI [5, 8]: 3.5; Mean I^125 Absorbance, Transplanted kidney [5, 8]: 439 ± 31 cpm; Δcpm [5, 8]: 122 cpm; MFI [5, 9]: 2.4; Mean I^125 Absorbance, Transplanted kidney [5, 9]: 671 ± 24 cpm; Δcpm [5, 9]: 247 cpm; MFI (mean function index) [5, 10]: 3.0; Mean I^125 Absorption, Transplanted Kidney [5, 10]: 10759 cpm; Δcpm [5, 10]: 9835 cpm

Q: What does the source list for `C=CC[C@@H]1/C=C(\C)C[C@H](C)C[C@H](OC)[C@H]2O[C@@](O)(C(=O)C(=O)N3CCCC[C@H]3C(=O)O[C@H](/C(C)=C/[C@@H]3CC[C@@H](O)[C@H](OC)C3)[C@H](C)[C@@H](O)CC1=O)[C@H](C)C[C@@H]2OC` [FK 506, tacrolimus]?
A: mean survival time (MST) of skin graft ([1]; FK 506 5 mg/kg): 9.5 days; prolongation of skin graft survival ([1]; FK 506 5 mg/kg): 12%; mean survival time (MST) of skin graft ([1]; FK 506 10 mg/kg): 13.8 days; prolongation of skin graft survival ([1]; FK 506 10 mg/kg): 88%; Prolongation ([1]; FK 506 1.25 mg/kg alone): 8%; MST (Mean Graft Survival Time) ([1]; FK 506 1.25 mg/kg i.m. daily from 6 days before transplantation, alone): 11.2 days; MST (Mean Graft Survival Time) ([1]; FK 506 2.5 mg/kg alone): 11.8 days; Prolongation ([1]; FK 506 2.5 mg/kg alone): 13%; MST (Mean Graft Survival Time) ([1]; FK 506 5.0 mg/kg alone): 12.7 days; Prolongation ([1]; FK 506 5.0 mg/kg alone): 22%; MST (Mean Graft Survival Time) ([1]; FK 506 10 mg/kg alone): 16.0 days; Prolongation ([1]; FK 506 10 mg/kg alone): 54%; mortality ([1]; higher dose, FK 506 10 mg/kg, average): 20 % of the mice; toxic effect on the mice ([1]; mouse, in vivo, 10 mg/kg): considerable weight loss and weakness; MST (Mean Survival Time) of skin graft ([2]; FK506 300 μg/day ip, 7 injections from day −2): 21.2 days; MST (Mean Survival Time) of skin graft ([2]; FK506 300 μg/day ip, 7 injections from day −2, listed as FK506): 21.2 ± 4.3 days; Prolongation ([3]; FK 506 1.25 mg/kg alone): 15.3 days; MST (Mean Graft Survival Time) of heart graft ([3]; FK 506 1.25 mg/kg daily from 6 days before transplantation, alone, 1.25 mg/kg): 22.5 days and 22.5 ± 0.9 days; Prolongation ([3]; FK 506 2.5 mg/kg alone): 18.3 days; MST (Mean Graft Survival Time) of heart graft ([3]; FK 506 2.5 mg/kg alone, 2.5 mg/kg): 25.5 days and 25.5 ± 1.4 days; toxicity in rats ([3]; FK 506 2.5 mg/kg, 2.5 mg/kg): toxic consequences; death of rats after number of daily injections ([3]; FK506 5 mg/kg): 6-8 daily injections; toxicity in rats ([3]; FK 506 5.0 mg/kg, 5 mg/kg): toxic consequences; also recorded: toxic all rats died; Mean I^125 Absorption, Transplanted Kidney [4, 11]: 3117 cpm; Δcpm (transplanted minus untransplanted kidney) [4, 11]: 2424 cpm; MFI (mean function index) ([4]; FK 506 300 μg/day): 3.1; MFI ([5]; FK506 1.25 mg/kg): 3.1; Mean I^125 Absorbance, Transplanted kidney ([5]; FK506 1.25 mg/kg): 928 ± 165 cpm; Δcpm ([5]; FK506 1.25 mg/kg): 327 cpm; MFI ([5]; FK506 2.5 mg/kg): 4.1; Mean I^125 Absorbance, Transplanted kidney ([5]; FK506 2.5 mg/kg): 772 ± 519 cpm; Δcpm ([5]; FK506 2.5 mg/kg): 431 cpm; MFI ([5]; FK506 5 mg/kg): 3.7; Mean I^125 Absorbance, Transplanted kidney ([5]; FK506 5 mg/kg): 1167 ± 636 cpm; Δcpm ([5]; FK506 5 mg/kg): 383 cpm
